Data from patent publication US11291206B2, “Herbicidal composition comprising cinmethylin and specific pigment synthesis inhibitors” (BASF Agro B.V., priority 2015, dated 2022).

How the values were obtained:
Assay type in all cases: in vivo
Lolium multiflorum [1] = assay: Greenhouse post-emergence herbicidal activity; settings: postemergence, LOLMU, 20 DAT
Description: (§1) The test plants have been seeded, separately for each species, in plastic containers in sandy loamy soil containing 5% of organic matter.
(§2) For the post emergence treatment, the plants were first grown to the 2 leaf station (GS 12) and applied at GS 12-19 depending on the species. Here, the herbicidal compositions were suspended or emulsified in water as distribution medium and sprayed using finely distributing nozzels.
(§3) The plants have been cultivated due to their individual requirements at 10-25° C. and 20-35° C. The plants were irrigated due to their necessity.
(§4) The racemic mixture (±)-2-exo-(2-M ethylbenzyloxy)-1-methyl-4-isopropyl-7-oxabicyclo[2.2.1]heptane was used as herbicide A and formulated as emulsifiable concentrates with an active ingredient concentration of 50g/I, 100 g/I or 750 g/I respectively.
(§5) Clomazone (herbicide B.3) was used as wettable powder (WP) formulation having an active ingredient concentration of 50%.
(§6) In the following experiments, the herbicidal activity for the individual herbicidal compositions (solo and mixture applications) was assessed 20 days after treatment (DAT).
(§7) The evaluation for the damage on undesired weeds caused by the chemical compositions was carried out using a scale from 0 to 100%, compared to the untreated control plants. Here, 0 means no damage and 100 means complete destruction of the plants.
(§8) E=X+Y−(X·Y/100) where • X=effect in percent using herbicide A at an application rate a; • Y=effect in percent using herbicide B at application rate b; • E=expected effect (in %) of herbicide A+herbicide B at application rates a+b.
(§9) The value E corresponds to the effect (plant damage or injury) which is to be expected if the activity of the individual compounds is additive.

Anthemis arvensis [2] = assay: Greenhouse post-emergence herbicidal activity; settings: postemergence, ANTAR, 20 DAT
Description: as §1, §2, §3, §4, §5, §6, §7, §8, §9

Geranium dissectum = assay: Greenhouse pre-emergence herbicidal activity; settings: preemergence, GERDI, 20 DAT
Description: as §1
(§10) The containers were irrigated gently to promote germination and growth and subsequently covered with transparent plastic hoods until the plants had rooted.
as §3, §4, §5, §6, §7, §8, §9

Papaver rhoeas = assay: Greenhouse pre-emergence herbicidal activity; settings: preemergence, PAPRH, 20 DAT
Description: as §1, §10, §3, §4, §5, §6, §7, §8, §9

Lolium multiflorum [3] = assay: Greenhouse pre-emergence herbicidal activity; settings: preemergence, LOLMU, 20 DAT
Description: as §1, §10, §3, §4, §5, §6, §7, §8, §9

Polygonum convolvulus = assay: Greenhouse pre-emergence herbicidal activity; settings: preemergence, POLCO, 20 DAT
Description: as §1, §10, §3, §4, §5, §6, §7, §8, §9

Anthemis arvensis [4] = assay: Greenhouse pre-emergence herbicidal activity; settings: preemergence, ANTAR, 20 DAT
Description: as §1, §10, §3, §4, §5, §6, §7, §8, §9

Brassica napus = assay: Greenhouse pre-emergence herbicidal activity; settings: preemergence, BRSNW, 20 DAT
Description: as §1, §10, §3, §4, §5, §6, §7, §8, §9

[5] = solo application herbicide A 62.5 g ai/ha
[6] = solo application herbicide A 125 g ai/ha
[7] = solo application herbicide A 250 g ai/ha
[8] = solo application clomazone 125 g ai/ha
[9] = solo application clomazone 187.5 g ai/ha
[10] = solo application clomazone 750 g ai/ha
[11] = solo application clomazone 250 g ai/ha
[12] = solo application clomazone 500 g ai/ha

Q: Which results are given for `Cc1ccccc1CO[C@@H]1C[C@@]2(C(C)C)CC[C@]1(C)O2` (racemic) [herbicide A, (±)-2-exo-(2-Methylbenzyloxy)-1-methyl-4-isopropyl-7-oxabicyclo[2.2.1]heptane]?
A: herbicidal activity (Lolium multiflorum [1]; [5]): 35%; herbicidal activity (Anthemis arvensis [2]; [6]): 0%; herbicidal activity (Anthemis arvensis [2]; [7]): 40%; herbicidal activity (Geranium dissectum; [5]): 70%; herbicidal activity (Geranium dissectum; [6]): 70%; herbicidal activity (Geranium dissectum; [7]): 70%; herbicidal activity (Papaver rhoeas; [7]): 65%; herbicidal activity (Lolium multiflorum [3]; [5]): 85%; herbicidal activity (Polygonum convolvulus; [5]): 0%; herbicidal activity (Anthemis arvensis [4]; [5]): 0%; herbicidal activity (Anthemis arvensis [4]; [6]): 20%; herbicidal activity (Brassica napus; [5]): 0%; herbicidal activity (Brassica napus; [7]): 15%; herbicidal activity (Brassica napus; solo application herbicide A 500 g ai/ha): 40%

Q: Which herbicidal activity (Lolium multiflorum [1]; [8]) does the source give for `CC1(C)CON(Cc2ccccc2Cl)C1=O` [clomazone, 2-(2-chlorobenzyl)-4,4-dimethyl-1,2-oxazolidin-3-one] here?
A: Its herbicidal activity is 80%.

Q: What about the herbicidal activity (Lolium multiflorum [1]; [9]) of the same compound?
A: The herbicidal activity was 90%.

Q: And the herbicidal activity (Anthemis arvensis [2]; solo application clomazone 375 g ai/ha)?
A: The herbicidal activity was 75%.

Q: And the herbicidal activity (Anthemis arvensis [2]; [10])?
A: Its herbicidal activity is 90%.

Q: What about the herbicidal activity (Geranium dissectum; [8]) of the same compound?
A: Its herbicidal activity is 30%.

Q: And the herbicidal activity (Geranium dissectum; [11])?
A: The herbicidal activity was 40%.

Q: What about the herbicidal activity (Geranium dissectum; [10]) of the same compound?
A: The herbicidal activity was 80%.

Q: And the herbicidal activity (Papaver rhoeas; [12])?
A: Its herbicidal activity is 90%.

Q: What about the herbicidal activity (Lolium multiflorum [3]; [8]) of the same compound?
A: Its herbicidal activity is 85%.

Q: And the herbicidal activity (Polygonum convolvulus; [8])?
A: Its herbicidal activity is 75%.

Q: What about the herbicidal activity (Anthemis arvensis [4]; [8]) of the same compound?
A: Its herbicidal activity is 60%.

Q: And the herbicidal activity (Anthemis arvensis [4]; [11])?
A: Its herbicidal activity is 85%.

Q: What about the herbicidal activity (Brassica napus; [8]) of the same compound?
A: Its herbicidal activity is 40%.

Q: And the herbicidal activity (Brassica napus; [9])?
A: The herbicidal activity was 45%.

Q: And the herbicidal activity (Brassica napus; [12])?
A: The herbicidal activity was 75%.

Q: What about the herbicidal activity (Brassica napus; solo application clomazone 1000 g ai/ha) of the same compound?
A: The herbicidal activity was 90%.
